# Measurements from US10980819B2, “High concentration formulation” (Cassiopea S.P.A., priority 2015, dated 2021).
# Where two headings read alike, the source gives them in different places.
# Experiments:
# [1] = Clinical evaluation, excretion parameters at 1st and 55th application (Example 6); format: in vivo, human; details: for Analyte Excreted, Free / Analyte Excreted, Total: formulation of Example 4b on scalp
# Procedure: The formulation described in Example 4b was studied in a clinical trial to evaluate its pharmacokinetic profile, safety, and tolerability. According to the study protocol, 1 ml of the formulation (corresponding to 50 mg of cortexolone-17α-propionate) was applied once a day on study day 1 and then twice daily thereafter on study days 2-28 to the areas of the scalp suffering from alopecia. Statistical analyses were performed using SAS® version 9.1.3, service pack 4 for Windows and Phoenix WinNonLin 6.3, Pharsight Corporation, USA.
# [2] = Franz cell diffusion test 1 (Example 7); format: in vitro ADME; details: for Permeation rate / Skin concentration: 48 h, saturated solution, 300 mg on 2.54 cm^2 skin, 32° C.
# Procedure: In an in vitro study, the skin penetration potential of cortexolone-17α-propionate was compared to cyproterone acetate using a standard Franz cell. According to the protocol, 300 mg of each test formulations was applied as saturated solution with a concentration ranging from 0.7 to 1 weight (w/w) to 2.54 cm^2 of exposed skin area. The receptor chamber volume ranged from 4.75 ml to 6.4 ml of phosphate buffered saline/fetal calf serum (2:1) containing penicillin/streptomycin according to standard protocol, and was maintained at a temperature of 32° C.+/−1° C. Stirring was maintained at 300 rpm.
# The experiments were conducted for 48 h in triplicate. 100 μl fractions were withdrawn at 5-7 time points during the 48 h test period. After withdrawing a 100 μl fraction for analysis, it was replaced with fresh receiver fluid in an equal volume. At the end of the experiment, the skin was taken from the Franz cells and the skin's stratum corneum was removed by tape stripping (20×) with transparent adhesive tape (Koren, Spain).
# The strippings were analyzed by dissolution in a mixture of propylene glycol:oeyl alcohol 9:1. The resulting mixture was analyzed for concentration of cyproterone acetate and cortexolone-17α-propionate, with the results provided in Table 12, below.
# [3] = Evaluation of cortexolone-17α-propionate solubility (Example 1); format: physicochemical; details: 5 g in 100 ml
# Procedure: 5 g of cortexolone-17α-propionate was added to 100 ml of each of the solvents or solvent mixtures shown in Table 1, below, in an effort to produce a 5% w/v solution of cortexolone-17α-propionate. In the examples in Table 1, ethanol refers to ethanol 96°.
# AGA [4] = test: Finasteride 1 mg tablets phase III clinical studies 087 and 089, published by the FDA (Example 11); format: in vivo, human; details: original value divided by 5.1
# Procedure: Based on the results of finasteride 1 mg tablets (PROPECIA®) described in the two Phase III clinical studies published online by the United States Food and Drug Administration (the FDA), it can be concluded that the mean change from baseline in non-vellus TAHC at month 6 for cortexolone-17α-propionate solution 5% (according to Example 4b), as reported in Example 9, is very similar to the mean change from baseline in non-vellus TAHC at month 6 observed in 2 phase III clinical trials on finasteride 1 mg tablets (tradename Propecia®) per os once daily. Table 20 below reports the change from baseline in TAHC at month 6 in the two finasteride studies (data of active finasteride groups) as described in the NDA for PROPECIA® published online by the FDA:
# In the two finasteride studies, the target area was a 1-inch diameter circle, which corresponds to 5.1 cm^2. In order to compare the changes from baseline in TAHC at month 6 obtained in the finasteride studies and the change from baseline in TAHC at month 6 obtained with cortexolone-17α-propionate in the study of the present Example 9 (where the target area was 1 cm^2), the original finasteride data have been recalculated to take into account the differences between the total surfaces of the target areas (i.e., the values were divided by 5.1) as shown in Table 21.
# AGA [5] = details: cited from earlier work
# [6] = test system: serum DHT as well as scalp DHT; details: single oral administration of finasteride 1 mg; cited from earlier work
# [7] = PROPECIA package insert; 1 mg tablets; cited from earlier work
# [8] = 1st Application (Day 1), N = 18
# [9] = 55th Application (Day 28), N = 17
compound,measurement,setting,value
"C[C@]12CCC(=O)C=C1CC[C@@H]1[C@@H]2CC[C@@]2(C)[C@H]1CC[C@]2(O)C(=O)CO [Cortexolone, cortexolone]","Analyte Excreted, Free",[1]; [8],BLQL
same,"Analyte Excreted, Total",[1]; [8],0.06 ± 0.26 µg
same,"Analyte Excreted, Free",[1]; [9],BLQL
same,"Analyte Excreted, Total",[1]; [9],0.64 ± 0.74 µg
"CCC(=O)O[C@]1(C(=O)CO)CC[C@H]2[C@@H]3CCC4=CC(=O)CC[C@]4(C)[C@H]3CC[C@@]21C [Cortexolone-17α-propionate, 17α-propionyloxy-21-hydroxy-pregna-4-ene-3,20-dione]","% Excreted, Free",[1]; [8],0 ± 0%
same,"% Excreted, Total",[1]; [8],0.25 ± 0.10%
same,"Analyte Excreted, Free",[1]; [8],0.16 ± 0.34 µg
same,"Analyte Excreted, Total",[1]; [8],126.37 ± 48.99 µg
same,"Analyte Excreted, Free",[1]; [9],2.72 ± 1.54 µg
same,"Analyte Excreted, Total",[1]; [9],429.53 ± 178.24 µg
same,Permeation rate,[2],1410 ± 137 ng/mL/h
same,Skin concentration,[2],231 ± 19 µg/g
same,"permeates skin, times as much as cyproterone acetate",[2]; versus cyproterone acetate,about 3 times
same,"permeation rate, times greater than cyproterone acetate",[2]; versus cyproterone acetate,about 10 times
same,Cortexolone-17α-propionate Solubility at Room Temperature,[3]; Caprylocaproyl polyoxyl-8 glycerides NF (LABRASOL ®),Sparingly soluble
same,Cortexolone-17α-propionate Solubility at Room Temperature,[3]; Ethanol (96°),Highly soluble
same,Cortexolone-17α-propionate Solubility at Room Temperature,[3]; Ethanol/propylene glycol (1:1) v:v,Soluble
same,Cortexolone-17α-propionate Solubility at Room Temperature,[3]; Ethanol/propylene glycol/TRANSCUTOL ® (1:1:1) v:v,Very soluble
same,Cortexolone-17α-propionate Solubility at Room Temperature,[3]; Isopropyl myristate,Insoluble
same,Cortexolone-17α-propionate Solubility at Room Temperature,[3]; Isopropyl palmitate,Insoluble
same,Cortexolone-17α-propionate Solubility at Room Temperature,[3]; Propylene glycol,Sparingly soluble
same,Cortexolone-17α-propionate Solubility at Room Temperature,[3]; TRANSCUTOL ®/water (1:1) v:v,Insoluble
same,Cortexolone-17α-propionate Solubility at Room Temperature,[3]; TRANSCUTOL ®/water/ethanol (1:1:1) v:v,Soluble
same,Cortexolone-17α-propionate Solubility at Room Temperature,[3]; TRANSCUTOL ®,Very soluble
same,Cortexolone-17α-propionate Solubility at Room Temperature,[3]; Water/propylene glycol/TRANSCUTOL ® (1:1:1) v:v,Insoluble
same,Cortexolone-17α-propionate Solubility at Room Temperature,[3]; Water/propylene glycol/TRANSCUTOL ® (1:1:2) v:v,Soluble
same,Cortexolone-17α-propionate Solubility at Room Temperature,[3]; Water,Insoluble
"CC(=O)O[C@]1(C(C)=O)CC[C@H]2[C@@H]3C=C(Cl)C4=CC(=O)[C@@H]5C[C@@H]5[C@]4(C)[C@H]3CC[C@@]21C [Cyproterone Acetate, cyproterone acetate, reference compound]",Permeation rate,[2],141 ± 17 ng/mL/h
same,Skin concentration,[2],89.4 ± 4.6 µg/g
CC(C)(C)NC(=O)[C@H]1CC[C@H]2[C@@H]3CC[C@H]4NC(=O)C=C[C@]4(C)[C@H]3CC[C@]12C [finasteride],"Change from Baseline in non-vellus TAHC at Month 6, recalculated over a target area of 1 cm^2",AGA [4]; Combined (study 087 + 089),12.2
same,"Change from Baseline in non-vellus TAHC at Month 6, recalculated over a target area of 1 cm^2",AGA [4]; Study 087,13.6
same,"Change from Baseline in non-vellus TAHC at Month 6, recalculated over a target area of 1 cm^2",AGA [4]; Study 089,11.5
same,Change from Baseline in non-vellus TAHC at Month 6,"AGA [5]; Combined (study 087 + 089), target area 5.1 cm^2",62.4
same,Change from Baseline in non-vellus TAHC at Month 6,"AGA [5]; Study 087, target area 1-inch diameter circle, 5.1 cm^2, 1 mg per os once daily",69.5
same,Change from Baseline in non-vellus TAHC at Month 6,"AGA [5]; Study 089, target area 1-inch diameter circle, 5.1 cm^2, 1 mg per os once daily",58.4
same,decrease of serum DHT as well as scalp DHT compared to baseline,[6],up to 70%
same,"patients with adverse events (decreased libido, erectile dysfunction, ejaculation disorders, decreased volume of ejaculate)",[7],1%
